What all share (type): functional, cell-based
For one assay, the system named is BXPC-3. Nature of the assay: Antiproliferative activity against human BxPC3 cells assessed as viable cells after 48 hrs by MTT assay. The following applies: BXPC-3, 48 h.
The subject of a further assay is DU-145. Put plainly: Antiproliferative activity against human DU145 cells assessed as viable cells after 48 hrs by MTT assay. The following applies: DU-145, 48 h. (Formazan colour is commonly taken as a measure of viable cells.)
The next assay has as its system NCI-H460. Nature of the assay: Antiproliferative activity against human NCI-H460 cells assessed as viable cells after 48 hrs by MTT assay. The following applies: NCI-H460, 48 h.
The next assay deals with MCF7. Put plainly: Antiproliferative activity against human MCF7 cells assessed as viable cells after 48 hrs by MTT assay. Particulars: MCF7, 48 h.

Among the data in ChEMBL document CHEMBL1806351, “Synthesis of C-1 homologues of pancratistatin and their preliminary biological evaluation” (Bioorg Med Chem Lett, 2011) are IC50 values, retold here.

Broadly, the IC50 is the concentration that inhibits the measured activity by half.

Take `CC(=O)OC[C@H]1[C@H](O)[C@@H](O)[C@@H](O)[C@@H]2NC(=O)c3cc4c(cc3[C@@H]12)OCO4`: the IC50 is 340 nM in the assay on BXPC-3, 720 nM in the assay on DU-145, 530 nM in the assay on NCI-H460 and 1810 nM in the assay with MCF7.

As to `CC(=O)OC[C@H]1[C@H](O)[C@@H](O)[C@@H](O)[C@@H]2NC(=O)c3c(cc4c(c3O)OCO4)[C@@H]12`, the IC50 in the assay with BXPC-3 was 70 nM; in the assay with DU-145, 60 nM; with NCI-H460, 70 nM; with MCF7 it was 520 nM.

Consider `O=C1N[C@H]2[C@H](O)[C@H](O)[C@@H](O)[C@H](CO)[C@@H]2c2cc3c(cc21)OCO3`, for which the IC50 with BXPC-3 amounted to 770 nM; with DU-145, 1100 nM; in the assay on NCI-H460 it was 400 nM; with MCF7, 860 nM.

For the molecule `O=C1N[C@H]2[C@H](O)[C@H](O)[C@@H](O)[C@H](CO)[C@@H]2c2cc3c(c(O)c21)OCO3`, the half-maximal inhibitory concentration (IC50) with BXPC-3 worked out at 220 nM; with DU-145, 90 nM; with NCI-H460, 90 nM; in the assay with MCF7, 240 nM.

Consider `O=C1N[C@@H]2C(=C[C@H](O)[C@@H](O)[C@H]2O)c2cc3c(c(O)c21)OCO3` [NARCICLASINE], for which the IC50 in the assay on BXPC-3 turned out to be 50 nM; with DU-145, 50 nM; with NCI-H460 it was 40 nM; with MCF7, 40 nM.
